Biological target: C-C chemokine receptor type 2 (Homo sapiens, UniProt P41597)
Test: Antagonist activity at CCR2 (unknown origin)

Chain of C-C chemokine receptor type 2 (P41597 whole entry): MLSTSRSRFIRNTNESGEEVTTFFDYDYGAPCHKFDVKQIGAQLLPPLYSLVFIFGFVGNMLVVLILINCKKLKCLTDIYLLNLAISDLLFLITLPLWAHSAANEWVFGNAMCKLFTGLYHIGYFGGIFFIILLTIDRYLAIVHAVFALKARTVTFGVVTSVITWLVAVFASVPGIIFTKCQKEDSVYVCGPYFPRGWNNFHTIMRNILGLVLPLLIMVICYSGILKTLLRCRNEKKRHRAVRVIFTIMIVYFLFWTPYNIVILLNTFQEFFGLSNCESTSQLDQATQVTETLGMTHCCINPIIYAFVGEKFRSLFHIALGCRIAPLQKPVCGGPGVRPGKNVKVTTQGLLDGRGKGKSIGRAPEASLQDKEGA

| IC50 | Structure (SMILES) |
| --- | --- |
| 239 nM | CC1COCCC1N[C@@H]1CC[C@@](C(=O)NCc2cc(C(F)(F)F)cc(C(F)(F)F)c2)(C(C)C)C1 (stereo partly specified) |
| 7.8 nM | CC(C)[C@]1(C(=O)NCc2cc(C(F)(F)F)cc(C(F)(F)F)c2)CC[C@@H](NC2CCOCC2C2CC2)C1 (stereo partly specified) |
| 4.6 nM | CC(C)[C@]1(C(=O)NCc2cc(C(F)(F)F)cc(C(F)(F)F)c2)CC[C@@H](NC2CCCOC2)C1 (stereo partly specified) |
| 6 nM | CC(C)[C@]1(C(=O)NCc2cc(C(F)(F)F)cc(C(F)(F)F)c2)CC[C@@H](NC2CCOCC2C(F)(F)F)C1 (stereo partly specified) |
| 28 nM | CC(C)[C@]1(C(=O)NCc2cc(C(F)(F)F)cc(C(F)(F)F)c2)CC[C@@H](NC2CCOCC2(C)C)C1 (stereo partly specified) |
| 766 nM | CC1CC(N[C@@H]2CC[C@@](C(=O)NCc3cc(C(F)(F)F)cc(C(F)(F)F)c3)(C(C)C)C2)CCO1 (stereo partly specified) |
| 123 nM | CC(C)[C@]1(C(=O)NCc2cc(C(F)(F)F)cc(C(F)(F)F)c2)CC[C@@H](NC2CCOCC2O)C1 (stereo partly specified) |
| 36 nM | CC(C)[C@]1(C(=O)NCc2cc(C(F)(F)F)cc(C(F)(F)F)c2)CC[C@@H](NC2CCSCC2)C1 |
| 1.5 nM | CCC1COCCC1N[C@@H]1CC[C@@](C(=O)NCc2cc(C(F)(F)F)cc(C(F)(F)F)c2)(C(C)C)C1 (stereo partly specified) |
| 51.1 nM | CC(C)[C@]1(C(=O)NCc2cc(C(F)(F)F)cc(C(F)(F)F)c2)CC[C@@H](NC2CCOCC2F)C1 (stereo partly specified) |
| 187 nM | CC(C)[C@]1(C(=O)NCc2cc(C(F)(F)F)cc(C(F)(F)F)c2)CC[C@@H](NC2CCc3ccccc3C2)C1 (stereo partly specified) |
| 3 nM | CCCC1COCCC1N[C@@H]1CC[C@@](C(=O)NCc2cc(C(F)(F)F)cc(C(F)(F)F)c2)(C(C)C)C1 (stereo partly specified) |
| 22 nM | CC(C)[C@]1(C(=O)NCc2cc(C(F)(F)F)cc(C(F)(F)F)c2)CC[C@@H](NC2CCSC2)C1 (stereo partly specified) |
| 5.5 nM | CC(C)[C@]1(C(=O)NCc2cc(C(F)(F)F)cc(C(F)(F)F)c2)CC[C@@H](NC2CCOCC2(O)C(F)(F)F)C1 (stereo partly specified) |
| 56 nM | CC(C)[C@]1(C(=O)NCc2cc(C(F)(F)F)cc(C(F)(F)F)c2)CC[C@@H](NC2CCOCC2)C1 |
| 230 nM | CC1COCC(C)C1N[C@@H]1CC[C@@](C(=O)NCc2cc(C(F)(F)F)cc(C(F)(F)F)c2)(C(C)C)C1 (stereo partly specified) |

— ChEMBL document CHEMBL3046549, “Comparative quantitative structureactivity relationship study of some 1-aminocyclopentyl-3-carboxyamides as CCR2 inhibitors using stepwise MLR, FA-MLR, and GA-PLS” (Med Chem Res, 2012)
